This passage reports IC50 results from ChEMBL document CHEMBL1129021, “Synthesis and biological evaluation of the L-enantiomer of 2-deoxy-5-ethyl-4-thiouridine” (Bioorg Med Chem Lett, 1996).

What all share (type): functional, organism-based
In experiment [1] the test system is Human immunodeficiency virus 1. Kind of experiment: Compound was evaluated for the antiviral activity against human immunodeficiency virus-1(HIV-1).
The subject of a further experiment is Human betaherpesvirus 5. As to the kind of experiment: Compound was evaluated for the antiviral activity against human cytomegalo virus(HCMV).
The next experiment relates to Human alphaherpesvirus 2. Kind of experiment: Compound was evaluated for the antiviral activity against herpes simplex virus-2(HSV-2).
A further experiment relates to Human alphaherpesvirus 3. As to the kind of experiment: Compound was evaluated for the antiviral activity against varicella zoster virus(VZV).

For the molecule `CCc1cn([C@H]2C[C@H](O)[C@@H](CO)S2)c(=O)[nH]c1=O`, the IC50 in experiment [1] is above 100 µM; with Human betaherpesvirus 5 it was above 100 µM; in the experiment with Human alphaherpesvirus 2 it was 2.3 µM; with Human alphaherpesvirus 3, 0.76 µM.
As to `CCc1cn([C@@H]2C[C@@H](O)[C@H](CO)S2)c(=O)[nH]c1=O`, the 50% inhibitory concentration (IC50) is above 50 µM in experiment [1], above 100 µM in the experiment on Human betaherpesvirus 5, above 50 µM with Human alphaherpesvirus 2 and above 40 µM with Human alphaherpesvirus 3.
